Measured values reported in patent publication US12194036B2 (priority 2022, dated 2025).

Columns and labels:
[1] = Pharmacokinetics after administration of the subject combination; conditions: for AUC0-12 relative to that of bupropion / Cmax relative to peak level of bupropion: metabolite vs bupropion, after the subject combination
[2] = Effect of CYP2D6 poor metabolizer status on pharmacokinetics of the tablet (Group 3); conditions: compared to patients who are not CYP2D6 poor metabolizers
[3] = Food effect on pharmacokinetics of the subject combination; conditions: subject combination administered with food
plasma protein = assay: Plasma protein binding; format: in vitro ADME; conditions: metabolite vs bupropion

CC(NC(C)(C)C)C(=O)c1cccc(Cl)c1 (racemic) [bupropion]
mean elimination half-life ([1]; human, plasma, oral): 15 h

COc1ccc2c(c1)[C@]13CCCC[C@@H]1[C@H](C2)N(C)CC3 [dextromethorphan]
plasma concentrations in CYP2D6 poor metabolizers [2]: increases plasma concentrations | AUC0-12 decrease with food [3]: 14% | increase of mean elimination half-life ([1]; 8 days of subject combination in extensive metabolizers, compared to dextromethorphan given without bupropion): approximately 3 fold | pharmacokinetics at steady state (linearity) ([1]; co-administered with bupropion): nonlinear pharmacokinetics | changes in AUC and Cmax at steady state with dose ([1]; varying doses of bupropion (75 to 150 mg), co-administered with bupropion): less than dose-proportional changes | changes in AUC and Cmax at steady state with dose ([1]; varying doses of dextromethorphan (30 to 60 mg), co-administered with bupropion): greater than dose-proportional changes

CC(NC(C)(C)C)C(O)c1cccc(Cl)c1 (centres unmarked) [erythrohydroxybupropion]
AUC0-12 relative to that of bupropion [1]: about 1.2 times | Cmax relative to peak level of bupropion [1]: approximately equal to

C[C@H]1NC(C)(C)CO[C@]1(O)c1cccc(Cl)c1 [hydroxybupropion]
AUC0-12 relative to that of bupropion [1]: about 19 times | Cmax relative to peak level of bupropion [1]: approximately 14 times

C[C@H](NC(C)(C)C)[C@@H](O)c1cccc(Cl)c1 [threohydroxybupropion]
extent of protein binding compared with bupropion (plasma protein): about half that seen with bupropion | AUC0-12 relative to that of bupropion [1]: about 7 times | Cmax relative to peak level of bupropion [1]: about 5 times
